Where two headings read alike, the source gives them in different places.
Tests used:
[1] = system: motor coordination in rats; assay: Rotarod, ER profile vs IR profile of brivaracetam in rats (Example 16); type: in vivo
Description: The primary objective of this study is to compare the CNS side effects of brivaracetam when delivered as a continuous infusion to rats to simulate an extended release (ER) plasma profile or as a bolus to simulate an immediate release (IR) plasma profile. It is hypothesized that reducing the rate of rise of plasma concentrations with the ER profile compared to the IR profile results in reduced CNS impairment. CNS side effects are measured as an impairment of motor coordination in rodents using the rotarod. The rotarod (Ugo Basile, Italy) is a device that allows for quantitative measurement of motor coordination in rodents. Animals experiencing CNS side effects such as dizziness would fall off the rotarod faster than normal animals.
(§1) An acceleration protocol is used for training and test sessions, wherein the rotarod is accelerated from 0-40 rpm over a 5 minute session. All rats are then surgically implanted subcutaneously with programmable pumps (iPRECIO, Durect Corporation, Cupertino, Calif.), per the manufacturer's instructions, under anesthesia and using aseptic techniques.
Three days following pump implantation surgery, all rats are tested on the rotarod to obtain baseline performance values. […]
Animals that stay on the rotarod for the entire session are assigned a run-time of 300 seconds. The time that each animal stays on the rotarod prior to falling is automatically recorded. […]

[2] = Brivaracetam plasma pharmacokinetics, ER infusion vs IP bolus in rats (Example 16); type: in vivo; details: PK satellite rats
Description: To reproduce the plasma profile of ER brivaracetam (ER profile, group 2), rats are administered brivaracetam as a continuous infusion into the intraperitoneal (IP) space. […] Control animals (group 1) are infused with vehicle using the same infusion protocol. […] Control animals (group 3) were implanted with pumps containing vehicle and were given an IP bolus of vehicle.
In order to fully elucidate the plasma concentration-time profile of brivaracetam administered by the ER and IR protocols, two groups of PK satellite rats are administered brivaracetam using identical protocols to groups 2 and 4 above to reproduce the ER and IR profiles, respectively. Blood is collected at varying time points and the plasma brivaracetam concentrations are determined. No rotarod testing is performed on the PK satellite rats.

[3] = cited from earlier work
[4] = system: motor coordination in mice; assay: Rotarod test in mice, PD phase (Example 12); type: in vivo
Description: The rotarod (Ugo Basile, […]) is a device that allows for quantitative measurement of motor coordination in rodents. Animals are pre-trained prior to testing on the rotarod.
24 hours prior to the test day, mice are trained to run on the accelerating rotarod for at least 120 s in two consecutive trials. The mice are given up to 12 trials to achieve this performance criterion. Any mice not meeting this criterion are excluded from the test study.
Mice are randomized to treatment groups (vehicle; IV: 3, 10 30 mg/kg; PO: 10, 30, 90 mg/kg). On the day of the test, the animals are dosed with test article and placed on the rotarod 5 minutes post-dosing. The rotarod is accelerated from 0-40 rpm over a 5 minute session, using the built-in function of the equipment. The rotarod test is repeated for each mouse at 15, 30 and 60 minutes post-drug administration. Animals that stay on the rotarod are assigned a run-time of 300 seconds. The time that each animal stays on the rotarod prior to falling is automatically recorded as the animal's fall latency.
The latency to fall time on the rotarod recorded for each animal is reported at each time point post-dose. Latency to fall is averaged (±SEM) across the 10 animals in each treatment group at each time point.

[5] = Lacosamide plasma pharmacokinetics, ER infusion vs IP bolus in rats (Example 15); type: in vivo; details: for Slope (rate of rise of plasma concentration): from initiation of drug administration; for Tmax: read-out: median Tmax; for AUC(0-t): read-out: AUC0-18
[6] = aqueous systems; cited from earlier work
[7] = system: motor coordination in rats; assay: Rotarod, IR vs ER subcutaneous infusion profile in rats (Example 14); type: in vivo; details: at Cmax
Description: The example investigates reducing the rate of rise of plasma concentrations with the ER profile compared to the IR profile results in reduced CNS impairment. CNS side effects are measured as an impairment of motor coordination in rodents using the rotarod. Performance of rodents in a battery of neurobehavioral tests conducted during the infusion period are used as secondary endpoints as measures of CNS impairment.
The infusion protocols are designed to produce pharmacokinetic profiles of lacosamide similar to that of IR lacosamide administered twice-a-day (BID) to humans (IR profile) or an extended release profile administered once-a-day (QD) to humans (ER profile) at varying doses administered as IR BID or ER QD.
Rats are pre-trained on the rotarod prior to testing and assigned to groups based on their body weights.
Following the period of acclimation, rats are surgically implanted with subcutaneous programmable pumps (iPRECIO), per the manufacturer's instructions. […]
On the test day at the specified time point, rats are placed on the rotarod and the rotarod is accelerated from 0-40 rpm over a 5 minute session, using the built-in function of the equipment. […] The time that each animal stays on the rotarod prior to falling is automatically recorded as the animal's fall latency. […]

[8] = PK phase, single IV or PO dose of lacosamide in mice (Example 12); type: in vivo, male CD-1 mice; details: male, CD-1, mouse, plasma
Excerpt: For the PK phase, male CD-1 mice were assigned to treatment groups according to the study design in Table Ex 12 below. IV dosing was done via tail vein injection and oral delivery was done with oral gavage tube.

[9] = system: motor coordination in rats; assay: Rotarod, ER profile vs IR profile of lacosamide in rats (Example 15); type: in vivo
Description: It is hypothesized that reducing the rate of rise of plasma concentrations with the ER profile compared to the IR profile results in reduced CNS impairment. CNS side effects were measured as an impairment of motor coordination in rodents using the rotarod. The rotarod (Ugo Basile, Italy) is a device that allows for quantitative measurement of motor coordination in rodents. Animals experiencing CNS side effects such as dizziness would fall off the rotarod faster than normal animals.
as §1, with “was” for “is”, “were” for “are”
Three days following pump implantation surgery, all rats were tested on the rotarod to obtain baseline performance values. Rats were assigned to treatment groups such that the mean time spent on the rotarod was similar for each group. Four groups of rats were utilized in this study, with 8-10 rats per group:
The total pump infusion duration was 18 hours. Control animals (group 1) were infused with vehicle (20% N-methyl-2-pyrrolidone, NMP) using the same infusion protocol. […] Control animals (group 3) were implanted with pumps containing vehicle and were given an IP bolus of vehicle.
Immediately following the 18 hour pump infusion for the ER groups, or 1 hour after IP injection for the IR groups, rats were placed on the rotarod and the rotarod was accelerated from 0-40 rpm over a 5 minute session, using the built-in function of the equipment. Animals that stayed on the rotarod for the entire session were assigned a run-time of 300 seconds. The time that each animal stayed on the rotarod prior to falling was automatically recorded.

SMILES: CCC[C@@H]1CC(=O)N([C@@H](CC)C(N)=O)C1 [brivaracetam, (2S)-2-[(4R)-2-oxo-4-propylpyrrolidin-1-yl]butanamide]
- change from baseline in time on the rotarod vs vehicle ([1]; ER profile): not different between brivaracetam treated and vehicle animals
- change in time on the rotarod vs vehicle ([1]; IR profile, IP bolus): greater reduction in time on the rotarod than matched vehicle controls
- rate of rise of plasma concentration, ER profile as % of IR profile [2]: < 10%
- elimination / plasma / pharmacokinetic half-life ([3]; human): 420 to 480 min
- fraction of dose unchanged in urine ([3]; in vivo): 5-8%
- Tmax ([3]; oral dosing, human): approximately 2 hours

SMILES: COC[C@@H](NC(C)=O)C(=O)NCc1ccccc1 [lacosamide, R-2-acetamido-N-benzyl-3-methoxypropionamide]
- latency to fall, PO compared to IV ([4]; doses with equivalent Cmax but different Tmax (e.g. 30 mg/kg IV and 90 mg/kg PO)): greater latency to fall on the rotarod (less impairment)
- effect of an increase in dose on latency to fall ([4]; same route of administration (IV or PO)): decrease in the latency to fall time on the rotarod
- Slope (rate of rise of plasma concentration) ([5]; Group 2 (ER)): 1.4 µg/mL/h
- Slope (rate of rise of plasma concentration) ([5]; Group 4 (IR)): 62 µg/mL/h
- reduction in the rate of the rise (slope) ER compared to IR ([5]; PK satellite rats): 98%
- Tmax ([5]; rat, plasma, 19 mg/kg, IP bolus, IR profile (Group 4), PK satellite rats): 45 min
- concentration at 1 h ([5]; rat, plasma, intraperitoneal, 19 mg/kg, group 4 (IR profile)): ~19000 ng/mL
- concentration at 18 h ([5]; rat, plasma, intraperitoneal, 122 mg/kg, group 2 (ER profile)): ~19000 ng/mL
- Cmax ([5]; rat, plasma, ip, 19 mg/kg, Group 4 (IR), PK satellite rats): 22000 ng/mL
- AUC(0-t) ([5]; rat, plasma, ip, 19 mg/kg, Group 4 (IR)): 18 µg·h/mL
- Tmax ([5]; rat, plasma, ip, 122 mg/kg, ER infusion protocol (Group 2), PK satellite rats): 900 min
- AUC(0-t) ([5]; rat, plasma, ip, 122 mg/kg, Group 2 (ER), 18 hour infusion): 217 µg·h/mL
- Cmax ([5]; rat, plasma, ip, 122 mg/kg, Group 2 (ER), PK satellite rats): 19000 ng/mL
- solubility [6]: about 20 mg/ml
- time spent on the rotarod, IR profile compared to ER group ([7]; given dose level): significantly reduced time spent on the rotarod (i.e. greater impairment)
- time spent on the rotarod vs dose ([7]; given infusion protocol, 400 vs 800 mg/day HED): decrease in a dose-dependent manner
- Cmax ([8]; 90 mg/kg oral dose): ~40000 ng/mL
- Tmax ([8]; IV route): < 5 min
- Tmax ([8]; oral route): ~15 min
- Cmax ([8]; single 10 mg/kg IV dose): ~15000 ng/mL
- Cmax ([8]; single 30 mg/kg IV dose): ~40000 ng/mL
- Cmax ([8]; single 30 mg/kg oral dose): ~15000 ng/mL
- percent change from baseline in time on the rotarod vs vehicle ([9]; ER groups, p>0.05): not statistically different
- increase in time on the rotarod from baseline ([9]; ER profile (group 2), vehicle 27% increase): 45%
- reduction in time on the rotarod from baseline ([9]; IR profile, IP bolus (group 4), vehicle 54% increase): 55%
- elimination / plasma / pharmacokinetic half-life ([3]; human): about 13 hours
- effect of CYP2C19 polymorphism on the pharmacokinetics ([3]; in vivo): no significant effect

Source: US10987324B2, “Methods and compositions for the treatment of seizure-related disorders” (Adamas Pharmaceuticals, Inc., priority 2015, dated 2021)
